According to patent publication US7196105B2, “Treatment of human multiple myeloma by curcumin” (Research Development Foundation, priority 2002, dated 2007):

Key:
Format in all cases: cell-based, human
[1] = system: IκBα; experiment: Western blot for NF-κB-regulated gene product IκBα in U266 cells; details: curcumin 50 μM, time course
Protocol: (§1) Sixty micrograms of cytoplasmic extracts were resolved on 10% SDS-PAGE gel, electrotransferred on a nitrocellulose membrane, and probed for the following: IκBα (FIG. 4A); Bcl-2 (FIG. 4B); Bcl-xL (FIG. 4C) and cyclin D1 (FIG. 4D). The same blots were stripped and reprobed with anti-β-actin antibody to show equal protein loading (lower panel in each figure). FIG. 4E: […] U266, MM.1 or RPMI 8226 cells (1×10^7) were treated with curcumin ([…]) in 5 ml of medium for the indicated times. Supernatants were harvested and concentrated approximately 20×, and IL-6 was quantitated by an IL-6 ELISA kit. Values shown were normalized to 1 ml of un-concentrated supernatants. Thirty to fifty micrograms of cytoplasmic protein extracts prepared as described (Chaturvedi et al., 2000) were resolved on 10% SDS-PAGE gel. After electrophoresis, the proteins were electrotransferred to a nitrocellulose membrane, blocked with 5% nonfat milk, and probed with antibodies against either IkBa, phospho-IkBa, Bcl-2, Bcl-xL, or cyclin D1 (1:3000) for 1 h. Thereafter, the blot was washed, exposed to HRP-conjugated secondary antibodies for 1 h, and finally detected by chemiluminescence (ECL, Amersham Pharmacia Biotech., Arlington Heights, Ill.).

[2] = system: IKKα and IKKβ; experiment: Western blot for total IKKα and IKKβ proteins in U266 cytoplasmic extracts; details: U266 cells, curcumin 50 μM
Protocol: FIG. 3A: Level of phosphorylated IκBα determined by Western blotting. FIG. 3B: Immunoprecipitated IκB kinase and kinase assay of IκB kinase activity (upper panel) or Western blotting for the analysis of total IKKα and IKKβ proteins in cytoplasmic extracts (lower panel). FIG. 3C: IκB kinase was immunoprecipitated and kinase assay was performed in the absence or presence of the indicated concentrations of curcumin (upper panel). Lower panel indicates the amount of GST-IκBα protein stained with Coomassie Blue in each well in the same dried gel. To determine the total amount of IKK complex in each sample, […] of cytoplasmic protein was resolved on a 7.5% acrylamide gel and then electrotransferred to a nitrocellulose membrane. The membrane was blocked with 5% nonfat milk protein for 1 h and then incubated with either anti-IKKα or anti-IKKβ antibodies for 1 h. The membrane was then washed and treated with HRP-conjugated secondary anti-mouse IgG antibody and finally detected by chemiluminescence (Amersham Pharmacia Biotech, Arlington Heights, Ill.).

[3] = system: IκBα phosphorylation; experiment: Western blot for phosphorylated IκBα in U266 cells; details: curcumin 50 μM, time course
Protocol: FIG. 3A: Level of phosphorylated IκBα determined by Western blotting. FIG. 3B: Immunoprecipitated IκB kinase and kinase assay of IκB kinase activity (upper panel) or Western blotting for the analysis of total IKKα and IKKβ proteins in cytoplasmic extracts (lower panel). FIG. 3C: IκB kinase was immunoprecipitated and kinase assay was performed in the absence or presence of the indicated concentrations of curcumin (upper panel). Lower panel indicates the amount of GST-IκBα protein stained with Coomassie Blue in each well in the same dried gel. Thirty to fifty micrograms of cytoplasmic protein extracts prepared as described (Chaturvedi et al., 2000) were resolved on 10% SDS-PAGE gel. After electrophoresis, the proteins were electrotransferred to a nitrocellulose membrane, blocked with 5% nonfat milk, and probed with antibodies against either IkBa, phospho-IkBa, Bcl-2, Bcl-xL, or cyclin D1 (1:3000) for 1 h. Thereafter, the blot was washed, exposed to HRP-conjugated secondary antibodies for 1 h, and finally detected by chemiluminescence (ECL, Amersham Pharmacia Biotech., Arlington Heights, Ill.).

[4] = system: NF-κB; experiment: Electrophoretic mobility shift assay (EMSA) for nuclear NF-κB in multiple myeloma cell lines; details: for time of complete downregulation of NF-κB: 50 μM curcumin
Protocol: FIG. 1A: Dose response of NF-κB to curcumin treatment of U266 cells. […] FIG. 1B: Effect of exposure duration on curcumin-induced NF-κB suppression in U266 cells. […] FIG. 1C: Effect of exposure duration on curcumin-induced NF-κB suppression in MM.1 cells. Cells were treated as described in FIG. 1B. FIG. 1D: Effect of exposure duration on curcumin-induced NF-κB suppression in MM.1R cells. Cells were treated as described in FIG. 1B. FIG. 1E: Effect of exposure duration on curcumin-induced NF-κB suppression in RPMI 8226. Cells were treated as described in FIG. 1B. FIG. 1F: […] Nuclear extracts were prepared from U266 cells (2×10^6/ml), incubated for 30 min with different antibodies or unlabeled NF-κB oligonucleotide probe, and then assayed for NF-κB by EMSA. […] U266 cells (2×10^6 cells/ml) were treated with indicated concentrations of NEMO-control or NBD-peptide (100 μM) for the indicated times. Nuclear extracts were then checked for the presence of NF-κB DNA-binding activity by EMSA. […] Untreated or NBD-peptide-treated (100 μM; 12 h) U266 cells were cytospun, and p65 immunocytochemistry was performed as described. Red stain indicates the localization of p65 and blue stain indicates nucleus (magnification 200×). […] U266 cells (2×10^6 cells/ml) were treated with indicated concentrations of NEMO-control or NBD-peptide (100 μM) for the indicated time periods, and cell viability was monitored by the trypan blue dye exclusion method. Percent cell killing was determined as: (number of trypan blue stained cells/total cells)×100. Nuclear extracts were prepared according to Bharti et al. (2003). Briefly, 2×10^6 cells were washed with cold PBS and suspended in 0.4 ml of hypotonic lysis buffer containing protease inhibitors for 30 min. The cells were then lysed with 12.5 μl of 10% Nonidet P-40. […] The nuclear pellet was resuspended in 25-μl ice-cold nuclear extraction buffer. After 30 min of intermittent mixing, the extract was centrifuged, and supernatants containing nuclear extracts were collected. Protein content was measured by the Bradford method. […] NF-kB activation was analyzed by electrophoretic mobility gel shift assay (EMSA) as described previously (Chaturvedi et al., 1994). […] Radioactive bands from the dried gels were visualized and quantitated by Phosphorlmager (Molecular Dynamics, Sunnyvale, Calif.) using ImageQuant software.

[5] = system: Bcl-xL; experiment: Western blot for NF-κB-regulated gene product Bcl-xL in U266 cells; details: curcumin 50 μM, time course
Protocol: as §1

In the case of `COc1cc(/C=C/C(=O)CC(=O)/C=C/c2ccc(O)c(OC)c2)ccc1O` [curcumin, diferuloylmethane], the IκBα protein level [1] is reported as “only a partial decline”, the “protein levels of IκB kinase subunits IKKα and IKKβ” value [2] is reported as “no significant change” and the “phosphorylated IκBα content” value [3] is reported as “decreased rapidly”. For the same compound, the “time of complete downregulation of NF-κB” value ([4]; MM.1 cells) was 4 h, the “time of complete downregulation of NF-κB” value ([4]; MM.1R cells) was 4 h and the “time of complete downregulation of NF-κB” value ([4]; U266 cells) was 4 h. The “concentration sufficient to fully suppress constitutive NF-κB activation” value ([4]; U266 cells, 4 h, EMSA) was 50 µM and the Bcl-xL protein level [5] was “only a partial decline”.
